Experimental findings from patent US20260248972A1, “DUAL RECEPTOR TARGETING RADIOLIGANDS AND USES THEREOF RELATED APPLICATIONS” (priority 2022, published 2026) are described below.

The target in one experiment is T1, CCK2R (Homo sapiens, UniProt P32239).
T1 construct: expressed in transfected cells; host or cells: HEK 293T cells
T1 sequence (P32239 1-447): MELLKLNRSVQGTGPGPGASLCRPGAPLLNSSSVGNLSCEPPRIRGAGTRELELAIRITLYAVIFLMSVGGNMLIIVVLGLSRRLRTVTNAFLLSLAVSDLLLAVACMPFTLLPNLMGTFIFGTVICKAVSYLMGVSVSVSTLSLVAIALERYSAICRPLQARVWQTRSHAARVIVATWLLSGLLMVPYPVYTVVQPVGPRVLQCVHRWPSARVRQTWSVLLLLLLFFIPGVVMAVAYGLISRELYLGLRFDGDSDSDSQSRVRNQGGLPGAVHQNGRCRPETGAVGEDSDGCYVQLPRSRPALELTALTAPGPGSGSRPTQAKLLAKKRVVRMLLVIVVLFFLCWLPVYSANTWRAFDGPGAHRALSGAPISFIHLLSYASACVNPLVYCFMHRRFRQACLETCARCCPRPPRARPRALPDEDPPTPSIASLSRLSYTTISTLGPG
The experiment in a line: Competitive binding (FACS) on CCK2R-transfected HEK 293T cells with Cy5-labeled F11N derivative. The settings on record: Cy5-labeled F11N derivative competitive ligand (Table 4).

The target in a further experiment is T2, SSTR2 (Homo sapiens, UniProt P30874).
T2 construct: expressed in transfected cells; host or cells: HEK 293T cells
The experiment in a line: Competitive binding (FACS) on SSTR2-transfected HEK 293T cells with Cy5-labled DOTA-TATE. The settings on record: HEK 293T transfected, Cy5-labled DOTA-TATE competitive ligand (Table 4). Here is the method: Binding Affinity Tested by Using Cy5-Labled Competitive Ligands.
HEK 293T cells were transfected with SSTR2 or CCK2R-expressing plasmid by Lipofectamine 2000 reagent. 24 hours after transfection, cells were harvested and suspended with assay buffer (1% OVA in DMEM). […] The testing compound was further supplemented into the wells at different concentrations. After incubation for 1 hour at dark, cells were washed and suspended in FACS buffer (1% OVA in DPBS). The fluorescent signal was detected by FACS machine and the binding affinity of the testing compound was evaluated by calculation of IC50 for competitive binding of reference compound.

Where [1] appears, read: HEK 293T transfected, read-out: CCK2R IC50.

Structures are written as SMILES. Where two headings read alike, the source gives them in different places. *1 amine or outer side, *2 acyl side, *3 side chain or, on linkers, in order; H or OH if unused. Where a SMILES comes first, the peptide text is derived from it. Bridges are numbered along the chain shown (N, C = ends). Roman numbers before positions name the chains, in order. Side-chain parts run from the residue outwards. [ ]: non-standard residue; d: D form. The star is where a group is joined. ξ: configuration not given here. X1 = CC(C)(C)C(=O)CN1C(=O)[C@H](N*)CN(C2CCCCC2)c2ccccc21; DOTA = O=C(O)CN1CCN(CC(=O)O)CCN(CC(=O)*)CCN(CC(=O)O)CC1; γGlu = O=C(O)[C@H](CCC(=O)[*:2])N[*:1]; X2 = CC(=O)[C@H](Cc1ccc(O)cc1)N*; X3 = CC(=O)[C@@H](N*)[C@@H](C)O; 3Abz = Nc1cccc(C(=O)O)c1; ξF = NC(Cc1ccccc1)C(=O)O; ξE = NC(CCC(=O)O)C(=O)O; AEEA = NCCOCCOCC(=O)O; CO = O=C([*:1])[*:2]

T2 sequence (P30874 whole entry, species assumed): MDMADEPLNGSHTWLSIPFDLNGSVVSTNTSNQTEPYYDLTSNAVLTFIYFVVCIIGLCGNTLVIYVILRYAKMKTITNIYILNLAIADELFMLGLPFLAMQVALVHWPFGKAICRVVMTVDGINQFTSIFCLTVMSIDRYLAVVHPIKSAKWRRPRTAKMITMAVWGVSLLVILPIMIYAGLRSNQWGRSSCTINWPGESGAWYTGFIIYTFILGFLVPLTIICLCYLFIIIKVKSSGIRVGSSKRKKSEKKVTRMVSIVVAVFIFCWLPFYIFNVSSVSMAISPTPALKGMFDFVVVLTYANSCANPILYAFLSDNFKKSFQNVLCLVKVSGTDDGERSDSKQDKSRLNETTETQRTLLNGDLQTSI

What is called IC50 is the concentration that gives 50% inhibition. On to `CC(=O)[C@H](Cc1ccc(O)cc1)NC(=O)[C@H](CSSC[C@H](NC(=O)[C@@H](NC(=O)[C@H](CCCCN)NC(=O)[C@H](N)Cc1c[nH]c2ccccc12)[C@@H](C)O)C(=O)N[C@H](C(C)=O)[C@@H](C)O)NC(=O)C(Cc1ccccc1)NC(=O)COCCOCCNC(=O)COCCOCCNC(=O)CC[C@H](NC(=O)C(CCC(=O)O)NC(=O)[C@H](CCCCNC(=O)c1cccc(NC(=O)N[C@@H]2CN(C3CCCCC3)c3ccccc3N(CC(=O)C(C)(C)C)C2=O)c1)NC(=O)CN1CCN(CC(=O)O)CCN(CC(=O)O)CCN(CC(=O)O)CC1)C(=O)O` (stereo partly drawn) [Compound I-75, DOTA-K(Z360)-Glu-gGlu-OEG-OEG-f[CYwKTC]T-OH] (I: {DOTA}-K([3Abz-CO-X1])[ξE][γGlu][AEEA][AEEA][ξF]C-X2 / II: H-[dW]KTC-X3; disulfide I:7-II:4), for which the IC50 worked out at 126 nM at CCK2R (setting [1]) and 9.36 nM at SSTR2.
On the same counts, the results for `C[C@@H](O)[C@H](NC(=O)[C@@H]1CSSC[C@H](NC(=O)[C@@H](Cc2ccccc2)C(=O)C(=O)COCCOCCNC(=O)[C@H](CCCCCC(=O)COCCOCCNC(=O)COCCOCCCC(=O)[C@H](CCC(=O)O)NC(=O)c2cccc(NC(=O)NN3CCc4ccccc4N(CC(=O)C(C)(C)C)C3=O)c2)NC(=O)CN2CCN(CC(=O)O)CCN(CC(=O)O)CCN(CC(=O)O)CC2)C(=O)N[C@@H](Cc2ccc(O)cc2)C(=O)N[C@H](Cc2c[nH]c3ccccc23)C(=O)N[C@@H](CCCCN)C(=O)N[C@@H]([C@@H](C)O)C(=O)C1)C(=O)O` [Compound I-76, DOTA-K(-OEG-OEG-Glu-Z360)-OEG-f[CYwKTC]T-OH] are 11.2 nM and 5.44 nM.
For `C[C@@H](O)[C@H](NC(=O)[C@@H]1CSSC[C@H](NC(=O)[C@@H](Cc2ccccc2)C(=O)C(=O)COCCOCCNC(=O)[C@H](CCCCCC(=O)COCCOCCNC(=O)CC[C@H](NC(=O)[C@H](CO)NC(=O)c2cccc(NC(=O)NN3CC(C4CCCCC4)c4ccccc4N(CC(=O)C(C)(C)C)C3=O)c2)C(=O)O)NC(=O)CN2CCN(CC(=O)O)CCN(CC(=O)O)CCN(CC(=O)O)CC2)C(=O)N[C@@H](Cc2ccc(O)cc2)C(=O)N[C@H](Cc2c[nH]c3ccccc23)C(=O)N[C@@H](CCCCN)C(=O)N[C@@H]([C@@H](C)O)C(=O)C1)C(=O)O` (stereo partly drawn) [Compound I-77, DOTA- K(-OEG- gGlu- Ser- Z360)- OEG- f]CYwKTC]T- OH] the same measures were 19.4 nM and 4.77 nM.
For `C[C@@H](O)[C@H](NC(=O)[C@@H]1CSSC[C@H](NC(=O)[C@@H](Cc2ccccc2)C(=O)C(=O)COCCOCCNC(=O)[C@H](CCCCCC(=O)COCCOCCNC(=O)CC[C@H](NC(=O)[C@H](CN)NC(=O)c2cccc(NC(=O)NN3CC(C4CCCCC4)c4ccccc4N(CC(=O)C(C)(C)C)C3=O)c2)C(=O)O)NC(=O)CN2CCN(CC(=O)O)CCN(CC(=O)O)CCN(CC(=O)O)CC2)C(=O)N[C@@H](Cc2ccc(O)cc2)C(=O)N[C@H](Cc2c[nH]c3ccccc23)C(=O)N[C@@H](CCCCN)C(=O)N[C@@H]([C@@H](C)O)C(=O)C1)C(=O)O` (stereo partly drawn) [Compound I-78, DOTA- K(-OEG- gGlu- Dap- Z360)- OEG- f[CYwKTC]T- OH] the same measures were 30.5 nM and 6.13 nM.
For the compound `C[C@@H](O)[C@H](NC(=O)[C@@H]1CSSC[C@H](NC(=O)[C@@H](Cc2ccccc2)C(=O)C(=O)COCCOCCNC(=O)[C@H](CCCCCC(=O)COCCOCCNC(=O)[C@H](Cc2c[nH]cn2)NC(=O)[C@H](CCC(=O)O)NC(=O)c2cccc(NC(=O)N[C@@H]3CN(C4CCCCC4)c4ccccc4N(CC(=O)C(C)(C)C)C3=O)c2)NC(=O)CN2CCN(CC(=O)O)CCN(CC(=O)O)CCN(CC(=O)O)CC2)C(=O)N[C@@H](Cc2ccc(O)cc2)C(=O)N[C@H](Cc2c[nH]c3ccccc23)C(=O)N[C@@H](CCCCN)C(=O)N[C@@H]([C@@H](C)O)C(=O)C1)C(=O)O` [Compound I-79, DOTA- K(-OEG- His- Glu- Z360)- OEG- f[CYwKTC]T- OH], the half-maximal inhibitory concentration (IC50) turned out to be 16.5 nM on CCK2R (CCK2R IC50, HEK 293T transfected) and 6.75 nM at SSTR2.
Take `C[C@@H](O)[C@H](NC(=O)[C@@H]1CSSC[C@H](NC(=O)[C@@H](Cc2ccccc2)C(=O)C(=O)COCCOCCNC(=O)[C@H](CCCCCC(=O)COCCOCCNC(=O)COCCOCCNC(=O)C(Cc2ccc(C(=O)O)cc2)NC(=O)c2cccc(NC(=O)NN3CC(C4CCCCC4)c4ccccc4N(CC(=O)C(C)(C)C)C3=O)c2)NC(=O)CN2CCN(CC(=O)O)CCN(CC(=O)O)CCN(CC(=O)O)CC2)C(=O)N[C@@H](Cc2ccc(O)cc2)C(=O)N[C@H](Cc2c[nH]c3ccccc23)C(=O)N[C@@H](CCCCN)C(=O)N[C@@H]([C@@H](C)O)C(=O)C1)C(=O)O` (stereo partly drawn) [Compound I-80, DOTA-K(-OEG-OEG-Cbp-Z360)-OEG-f[CYwKTC]T-OH]: the IC50 at CCK2R (setting [1]) was found to be 24.2 nM; on SSTR2, 5.03 nM.
